Five sequences from patent US12414983B2, “CD200AR ligands for cancer immunotherapy” (REGENTS OF THE UNIVERSITY OF MINNESOTA, priority 2019, dated 2025) can be followed below.

The subject of experiment [1] is Human CD14+ cells. Description: Cytokine measurements in CD14+ cells pulsed with CD200AR-L peptide. The note with it: selection among 61 alanine-substituted peptides. Type of experiment: cell-based. As for the experimental part:
Cytokine measurements. Human CD14^+ cells (5×10^5) were isolated from peripheral blood mononuclear cells (PBMCs) using anti-CD14 beads (BD Biosciences, San Jose, CA), typically yielding ≥70% recovery and ≥90% purity. Cells were pulsed with 2 μM CD200AR-L peptide and incubated for 48 h, after which the supernatants were analyzed by bead array for cytokine production (BD Biosciences, San Jose, CA).

Experiment [2] deals with CD14+ cells. The experiment can be described thus: Dendritic cell maturation: phenotyping for CD80, CD86, HLA-DR. The experiment is classed as cell-based, human. The note with it: peptide alone compared with GM-CSF+IL4, p<0.0001. On the procedure:
FIGS. 4A-4D. Targeting CD200 activation receptors enhances dendritic cell maturation. (FIGS. 4A, 4B) CD14 purified cells were pulsed with (FIG. 4A) GM-CSF+IL4 or equal molar ratios of peptides P1A8, P2A0, or P4A10 or (FIG. 4B) GM-CSF+IL4 plus equal molar ratios of peptides P1A8, P2A0, or P4A10 and incubated for 48 h. Cells were harvested and phenotyped for CD80, CD86, and HLA-DR. (FIG. 4C) Immature dendritic cells from donors with or without CMV were pulsed with the CMV antigen pp65+/−equal molar ratios of peptides P1A8, P2A0, or P4A10. Cells were washed, and autologous T-cells were added back and incubated for a further 48 h. Supernatants were analyzed for IFNγ production. (FIG. 4D) Immature dendritic cells were pulsed with the CMV antigen pp65+/−P4A10. After the cells were washed, autologous T-cells were added back and incubated for a further 48 h. Supernatants were analyzed for IFNγ, IL-6, TNFα and RANTES content. Error bars represent standard deviation (n=3 healthy donors/group, *P<0.05, **P<0.005, ***P<0.0005 by t-test). The data represent three separate healthy donors. Black bars represent CMV-negative donors.
Targeting CD200 activation receptors enhances dendritic cell maturation. TNF-regulated cytokines (Table 1) have been implicated in dendritic cell maturation. […] To substantiate this, CD14^+ cells were isolated from healthy human donors and pulsed with GM-CSF+IL4, P1A8, P2A0, or P4A10 27. Cells pulsed with P1A8, P2A0, and P4A10 expressed higher levels of the co-stimulatory molecules CD80, CD86, and HLA-DR than cells treated with GM-CSF+IL4 (p<0.0001; FIG. 4a). Moreover, we observed synergistic upregulation of CD80/86 and HLA-DR when CD14^+ cells were incubated with GM-CSF+IL4 and each of the peptides (p<0.0001) (FIG. 4b).

The test system of experiment [3] is human CD14 cells. The experiment can be described thus: CD200R1 and PD-1 on human CD14 cells pulsed with human CD200AR-L, flow cytometry. Type of experiment: cell-based. The note with it: mean fluorescent intensity. As for the experimental part: FIGS. 7A-7G. CD200AR-L pulses down-regulate inhibitory CD200R1. Murine CD11b cells were pulsed with mCD200AR-L, RNA was extracted and analyzed for CD200R1 or PD-1 expression (FIGS. 7A&B). To further these studies, CD11b cells were stimulated with OVA+/−CD200AR-L, cells were washed and purified T cells were added. Following 24 hr incubation, T-cells were isolated and analyzed for CD200R1 or PD-1 expression (FIGS. 7C&D). To see if these experiments translated to humans, CD14 cells were pulsed with our human CD200AR-L. Following 24 hr incubation, cells were stained with anti-CD200R1 analyzed by flow cytometry (FIG. 7E), mean fluorescent intensity was analyzed for CD200R1 (FIG. 7F) and PD-1 (FIG. 7G) expression. […] Error bars represent standard deviation (n=3/group, *P<0.05, **P<0.005, ***P<0.0005, ****P<0.00005 by t-test.
FIGS. 13A-13F. Figure. […] Murine CD11b cells were pulsed CD200AR-L and analyzed for transcription levels of (FIG. 13A) CD200R1 and (FIG. 13B) PD-1; Human CD14 cells were pulsed with human CD200AR-L, following 48 hr incubation, cells were analyzed by flow cytometry for (FIG. 13C) CD200R1 and (FIG. 13D) PD-1 expression; murine CD11b cells from wildtype mice were pulsed with OVA+/− the CD200AR-L. Cells were washed, purified CD3 cells were added to CD11b cells for 24 hrs. CD3 cells were purified and analyzed for transcription levels of (FIG. 13E) CD200R1 and (FIG. 13F) PD-1. […]

The test system of experiment [4] is CD14+ cells. Description: RNAseq / NanoString gene expression analysis of pulsed CD14+ cells. The experiment is classed as cell-based, human. The conditions noted are these: for mRNA expression of TNF-regulated cytokines: NanoString platform, FIG. 3b; for mRNA expression of cytokines released in response to TNF signaling: RNAseq, CD14+ cells. The source says:
Nanostring gene expression analysis: Total RNA from CD14^+ cells was sent to New Zealand Genomics Limited (Dunedin, New Zealand) to measure the expression of genes that are differentially expressed during inflammation (nCounter GX, NanoString Technologies, Seattle, WA, USA). Briefly, total RNA was extracted from CD14^+ cells (MagJET RNA kit, Thermo Fisher Scientific, Waltham, MA) using the protocol adapted for tissue (KingFisher Duo machine, Thermo Fisher Scientific, Waltham, MA). RNA samples were then quantified (Qubit® 2.0 fluorometer, Thermo Fisher Scientific) and subjected to RNA integrity analysis (2100 Bioanalyzer, Agilent Technologies, Santa Clara, CA). Probes for the genes encoding CD44 (NM_001001392.1); NANOG (NM_024865.2); OCT4 (NM_002701.4); STAT3 (NM_139276.2); and the housekeeping genes glucuronidase beta (NM_000181.1), clathrin heavy chain (NM 4859.2), and hypoxanthine phosphoribosyltransferase 1 (NM_000194.1) were designed and manufactured by NanoString Technologies.
Expression data obtained with NanoString GX were analyzed by using nSolver Analysis Software 3.0 (nanostring.com/products/nSolver) with default settings, and normalized to housekeeping genes. nSolver was used to perform cluster analysis and to generate heat maps by using Java Treeview Version 1.1.6r4. Pathway analysis was performed by using the PathCards Pathway Unification Database (pathcards.genecards.org). Student's t-tests were used to determine significant differences (p<0.05).

In experiment [5] the test system is murine glioma model. The experiment can be described thus: Murine glioma model survival. The experiment is classed as in vivo.
The test system of experiment [6] is spontaneously occurring glioblastoma. The experiment can be described thus: Canine study: tumor resection plus canine CD200AR-L and autologous tumor lysate vaccination. The experiment is classed as in vivo, dog. The conditions noted are these: canine glioma model. On the procedure: Canine study. Pet dogs with a solitary intra-axial mass found by magnetic resonance imaging (MRI) were recruited into a pilot study to assess the effect of a canine-specific peptide. The MRIs were performed to find the causes of generalized seizure activity or behavioral changes, and anti-epileptic drug therapy and corticosteroids were prescribed to control seizures and minimize cerebral edema, respectively. Additional inclusion criteria were 1) tumor suitable for surgical resection, 2) informed consent provided by the dog's owner, 3) normal mentation status at the time of surgery, and 4) no previous definitive therapy for the suspected glioma.
All dogs underwent surgical resection of the intra-axial mass for maximal tumor debulking. The removed tumors were immediately processed to generate autologous tumor lysates. The lysates were prepared by culturing single-cell suspensions from minced fresh tumor samples at 37° C. in 5% […]. […] An immediate postoperative MRI was performed to assess the extent of resection and to quantify any residual tumor volume. Tumor volume was measured using the planimetry method, which outlines the tumor perimeter on each MR slice; Osirix software was used to calculate the area, and then the areas were summed and multiplied by slice thickness plus gap width. After recovery from anesthesia, all dogs were monitored in the intensive care unit for at least 24 hours. […]

Experiment [7] has as its system T-lymphocytes. Description: P4A10 priming prior to antigen presentation, CD200R1 expression. Type of experiment: cell-based. The note with it: not observed in mock-treated cells, FIG. 7d. The source says: The efficacy of the P4A10+autologous tumor lysate strategy in this context creates an interesting conundrum. The T-cells that respond to APC presentation following stimulation express the inhibitory CD200R129. The immune-stimulatory effects of these primed T-cells, therefore, are expected to be blunted upon entry into a glioblastoma microenvironment that is replete with soluble and tumor-expressed CD200. […] Such suppression was not observed in mock-treated cells. Similar downregulation of PD-1 was observed on APCs (p=0.005, FIG. 7c).

In the case of “IVTWQKKAAVSPENM (Ac-IVTWQKKAAVSPENM-NH2; listed as Homo sapiens) [P1A8]”, the “secretion of inflammatory cytokines from CD14+ cells” value (shortened to “secretion of inflammatory cytokines”) in experiment [1] is “maximally stimulated”. For the same sequence, the “levels of co-stimulatory molecules CD80, CD86, and HLA-DR” value (shortened to “levels of co-stimulatory molecules CD80”) in experiment [2] is given as “higher levels”. Also, the “PD-1 expression on human CD14 cells” value in experiment [3] is recorded as “down regulated”. In experiment [4], the “mRNA expression of TNF-regulated cytokines” value is “most potently and consistently induced”; the “mRNA expression of cytokines released in response to TNF signaling” value (“mRNA expression of cytokines released” for short) is listed as “notable increase”.
In the case of “VTWQKKKAVSPANM (Ac-VTWQKKKAVSPANM-NH2; listed as Mus musculus) [murine P1A12]”, in experiment [5], the survival benefit entry is given as “significant survival benefit”.
Consider “CLFNTFGSGAISGTA (Ac-CLFNTFGSGAISGTA-NH2; listed as Canis lupus) [canine P4A10]”, for which, in experiment [6], the survival benefit result is listed as “significant survival benefit”.
Take “CLFNTFGFGAISGTA (Ac-CLFNTFGFGAISGTA-NH2; listed as Homo sapiens) [P4A10]”: in experiment [1], the “secretion of inflammatory cytokines” value is listed as “maximally stimulated”. For the same sequence, the “levels of co-stimulatory molecules CD80” value in experiment [2] is “higher levels”. Besides, in experiment [7], the CD200R1 expression entry was “suppressed”. Also, in experiment [4], the “mRNA expression of TNF-regulated cytokines” value is “most potently and consistently induced”; the “mRNA expression of cytokines released” value is “notable increase”.
With “NITLEDEGCYMCLFN (Ac-NITLEDEGCYMCLFN-NH2; cysteine pairing not given here; listed as Homo sapiens) [P2A0]”, in experiment [1], the “secretion of inflammatory cytokines” value is listed as “maximally stimulated”. Besides, in experiment [2], the “levels of co-stimulatory molecules CD80” value is on record as “higher levels”. In addition, in experiment [4], the “mRNA expression of TNF-regulated cytokines” value is “most potently and consistently induced”; the “mRNA expression of cytokines released” value is reported as “notable increase”.
